According to patent US10351547B2, “Somatostatin modulators and uses thereof” (priority 2016, dated 2019):

These compounds were tested against human SSTR2 (Homo sapiens (Human), UniProt P30874) (assay: Human SSTR2 intracellular cAMP functional assay for agonists (HTRF)). Conditions: not given.
human SSTR2, sequence (P30874 whole entry): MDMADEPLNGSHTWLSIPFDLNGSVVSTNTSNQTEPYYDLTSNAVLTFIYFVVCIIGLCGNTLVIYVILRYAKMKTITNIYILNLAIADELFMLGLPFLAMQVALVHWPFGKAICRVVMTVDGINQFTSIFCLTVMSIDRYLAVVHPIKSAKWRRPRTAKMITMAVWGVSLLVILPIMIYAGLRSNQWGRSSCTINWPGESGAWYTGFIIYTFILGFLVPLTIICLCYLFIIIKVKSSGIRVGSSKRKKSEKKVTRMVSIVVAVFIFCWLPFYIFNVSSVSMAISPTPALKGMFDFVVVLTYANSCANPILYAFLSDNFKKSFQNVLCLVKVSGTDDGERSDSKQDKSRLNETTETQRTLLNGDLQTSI
Assay type: cell-based
Description: Functional Assay for SSTR2 Agonists
General overview: All five SSTR subtypes are Gi coupled G-protein coupled receptors (GPCRs) that lead to decreases in intracellular cyclic AMP (cAMP) when activated by an agonist. […] Human SSTR2 intracellular cAMP assay is described below. The human SSTR1, 3, 4 and 5 assays follow the same protocol of SSTR2.
The cells are cultured at 37° C., 5% CO2 and 95% humidity. […] The cells are incubated for 20 minutes at 37° C. […] The cells are treated with 50 μL of lysis buffer (HRTF cAMP kit, Cisbio). […] The time-resolved fluorescent signal is read with a Tecan M1000Pro multiplate reader. The intracellular cAMP concentrations are calculated by regression to a standard curve and are plotted vs. the concentration of the compounds of the invention and the EC50 of the compounds are calculated using standard methods. All data manipulations are in GraphPad Prism v6.
For `Cc1cc(C)cc(-c2nnc3cc(Cl)c(Cl)cc3c2N2CCC(N)CC2)c1` [1-3, 1-[6,7-dichloro-3-(3,5-dimethylphenyl)cinnolin-4-yl]piperidin-4-amine], the EC50 was 0.1 to 1 µM. Compound `Cc1cc(F)cc(-c2nnc3cc(Cl)c(-c4cccc5[nH]c(=O)[nH]c45)cc3c2N2CCC(N)CC2)c1` [1-9, 4-[4-(4-aminopiperidin-1-yl)-7-chloro-3-(3-fluoro-5-methylphenyl)cinnolin-6-yl]-2,3-dihydro-1H-1,3-benzodiazol-2-one] has an EC50 of 0.01 to 0.1 µM. In the case of `Cc1cc(F)cc(-c2ccc3nnc(-c4cc(F)cc(C(N)=O)c4)c(N4CCC(N)CC4)c3c2)c1` [1-15, 3-[4-(4-aminopiperidin-1-yl)-6-(3-fluoro-5-methylphenyl)cinnolin-3-yl]-5-fluorobenzamide], the EC50 is reported as 0.01 to 0.1 µM. `N#Cc1cccc(-c2ccc3nnc(-c4cc(F)cc(F)c4)c(N4CCC(N)CC4)c3c2)c1O` [1-20, 3-[4-(4-aminopiperidin-1-yl)-3-(3,5-difluorophenyl)cinnolin-6-yl]-2-hydroxybenzonitrile] was tested, and the EC50 was 0.01 to 0.1 µM.

Same assay, conditions: CHO-K1 cells stably expressing human SSTR2; NKH477-stimulated cAMP; read-out: EC50 (inhibition of cAMP activities via human SST2R)
`CC#Cc1cncc(-c2ccc3ncc(-c4cc(F)cc(F)c4)c(N4CC[C@H]5NCCO[C@@H]5C4)c3c2)c1N` (relative stereo) [2-272, 3-{4-[trans-octahydro-1H-pyrido[3,4-b]morpholin-6-yl]-3-(3,5-difluorophenyl)quinolin-6-yl}-5-(prop-1-yn-1-yl)pyridin-4-amine] was tested, and the EC50 was under 0.01 µM. With `C#Cc1cncc(-c2ccc3ncc(-c4cc(F)cc(F)c4)c(N4CC[C@H]5OCCN[C@@H]5C4)c3c2)c1N` (relative stereo) [2-274, 3-{4-[trans-octahydro-1H-pyrido[3,4-b]morpholin-6-yl]-3-(3,5-difluorophenyl)quinolin-6-yl}-5-ethynylpyridin-4-amine] the EC50 was under 0.01 µM. `Nc1c(Cl)ccnc1-c1ccc2ncc(-c3cc(F)cc(F)c3)c(N3CC[C@H]4NCCO[C@@H]4C3)c2c1` (relative stereo) [2-275, 2-{4-[trans-octahydro-1H-pyrido[3,4-b]morpholin-6-yl]-3-(3,5-difluorophenyl)quinolin-6-yl}-4-chloropyridin-3-amine] showed an EC50 of under 0.01 µM. `Nc1cccnc1-c1ccc2ncc(-c3cc(F)cc(F)c3)c(N3CC[C@H]4NCCO[C@@H]4C3)c2c1` (relative stereo) [2-283, 2-{4-[trans-octahydro-1H-pyrido[3,4-b]morpholin-6-yl]-3-(3,5-difluorophenyl)quinolin-6-yl}pyridin-3-amine] was tested, and the EC50 was 0.01 to 0.1 µM. `O=c1[nH]c2cc(-c3ccc4ncc(-c5cc(F)cc(F)c5)c(N5CC[C@H]6NCCO[C@@H]6C5)c4n3)cc(F)c2[nH]1` (relative stereo) [3-10, 6-{8-[trans-octahydro-1H-pyrido[3,4-b]morpholin-6-yl]-7-(3,5-difluorophenyl)-1,5-naphthyridin-2-yl}-4-fluoro-2,3-dihydro-1H-1,3-benzodiazol-2-one] was tested, and the EC50 was under 0.01 µM. For `Cc1cc(C)cc(-c2nnc3cc(Cl)c(-c4cc(F)cc(C(N)=O)c4)cc3c2N2CCC(N)CC2)c1` [1-1, 3-[4-(4-aminopiperidin-1-yl)-7-chloro-3-(3,5-dimethylphenyl)cinnolin-6-yl]-5-fluorobenzamide], the EC50 was under 0.01 µM. With `Cc1cc(C)cc(-c2nnc3cc(Cl)c(-c4cccc(C#N)c4O)cc3c2N2CCC(N)CC2)c1` [1-2, 3-[4-(4-aminopiperidin-1-yl)-7-chloro-3-(3,5-dimethylphenyl)cinnolin-6-yl]-2-hydroxybenzonitrile] the EC50 was under 0.01 µM. Work on `Cc1cc(F)cc(-c2nnc3cc(Cl)c(-c4cc(F)cc(C(N)=O)c4)cc3c2N2CCC(N)CC2)c1` [1-4, 3-[4-(4-aminopiperidin-1-yl)-7-chloro-3-(3-fluoro-5-methylphenyl)cinnolin-6-yl]-5-fluorobenzamide] yielded an EC50 of under 0.01 µM. Compound `Cc1cc(F)cc(-c2nnc3cc(Cl)c(-c4cccc(C#N)c4O)cc3c2N2CCC(N)CC2)c1` [1-7, 3-[4-(4-aminopiperidin-1-yl)-7-chloro-3-(3-fluoro-5-methylphenyl)cinnolin-6-yl]-2-hydroxybenzonitrile] has an EC50 of under 0.01 µM. With `Cc1cc(F)cc(-c2nnc3cc(Cl)c(-c4ccc5[nH]c(=O)[nH]c5c4)cc3c2N2CCC(N)CC2)c1` [1-8, 5-[4-(4-aminopiperidin-1-yl)-7-chloro-3-(3-fluoro-5-methylphenyl)cinnolin-6-yl]-2,3-dihydro-1H-1,3-benzodiazol-2-one] the EC50 was under 0.01 µM. `N#Cc1cccc(-c2cc3c(N4CCC(N)CC4)c(-c4cc(Cl)cc(Cl)c4)nnc3cc2Cl)c1O` [1-11, 3-[4-(4-aminopiperidin-1-yl)-7-chloro-3-(3,5-dichlorophenyl)cinnolin-6-yl]-2-hydroxybenzonitrile] gave an EC50 of under 0.01 µM. Compound `Cc1cc(Cl)cc(-c2nnc3cc(Cl)c(-c4cc(F)cc(C#N)c4O)cc3c2N2CCC(N)CC2)c1` [1-12, 3-[4-(4-aminopiperidin-1-yl)-7-chloro-3-(3-chloro-5-methylphenyl)cinnolin-6-yl]-5-fluoro-2-hydroxybenzonitrile] has an EC50 of under 0.01 µM. Compound `Cc1cc(F)cc(-c2nnc3ccc(-c4cc(F)cc(C(N)=O)c4)cc3c2N2CCC(N)CC2)c1` [1-13, 3-[4-(4-aminopiperidin-1-yl)-3-(3-fluoro-5-methylphenyl)cinnolin-6-yl]-5-fluorobenzamide] has an EC50 of under 0.01 µM. With `NC(=O)c1cc(F)cc(-c2ccc3nnc(-c4cc(F)cc(F)c4)c(N4CCC(N)CC4)c3c2)c1` [1-14, 3-[4-(4-aminopiperidin-1-yl)-3-(3,5-difluorophenyl)cinnolin-6-yl]-5-fluorobenzamide] the EC50 was under 0.01 µM. In the case of `Cc1cc(F)cc(-c2nnc3ccc(-c4ccc5[nH]c(=O)[nH]c5c4)cc3c2N2CCC(N)CC2)c1` [1-16, 5-[4-(4-aminopiperidin-1-yl)-3-(3-fluoro-5-methylphenyl)cinnolin-6-yl]-2,3-dihydro-1H-1,3-benzodiazol-2-one], the EC50 is reported as under 0.01 µM. Work on `Cc1cc(F)cc(-c2nnc3ccc(-c4cccc(C#N)c4O)cc3c2N2CCC(N)CC2)c1` [1-17, 3-[4-(4-aminopiperidin-1-yl)-3-(3-fluoro-5-methylphenyl)cinnolin-6-yl]-2-hydroxybenzonitrile] yielded an EC50 of under 0.01 µM. In the case of `Cc1cc(Cl)cc(-c2nnc3ccc(-c4cccc(C#N)c4O)cc3c2N2CCC(N)CC2)c1` [1-18, 3-[4-(4-aminopiperidin-1-yl)-3-(3-chloro-5-methylphenyl)cinnolin-6-yl]-2-hydroxybenzonitrile], the EC50 is reported as under 0.01 µM. Work on `N#Cc1cccc(-c2ccc3nnc(-c4cc(F)cc(Cl)c4)c(N4CCC(N)CC4)c3c2)c1O` [1-19, 3-[4-(4-aminopiperidin-1-yl)-3-(3-chloro-5-fluorophenyl)cinnolin-6-yl]-2-hydroxybenzonitrile] yielded an EC50 of under 0.01 µM. Compound `N#Cc1cccc(-c2ccc3nnc(-c4cc(Cl)cc(Cl)c4)c(N4CCC(N)CC4)c3c2)c1O` [1-21, 3-[4-(4-aminopiperidin-1-yl)-3-(3,5-dichlorophenyl)cinnolin-6-yl]-2-hydroxybenzonitrile] has an EC50 of under 0.01 µM. In the case of `Cc1cc(Cl)cc(-c2nnc3ccc(-c4cc(F)cc(C#N)c4O)cc3c2N2CCC(N)CC2)c1` [1-22, 3-[4-(4-aminopiperidin-1-yl)-3-(3-chloro-5-methylphenyl)cinnolin-6-yl]-5-fluoro-2-hydroxybenzonitrile], the EC50 is reported as under 0.01 µM. Compound `Cc1cc(Cl)cc(-c2nnc3ccc(-c4cc(F)c5[nH]c(=O)[nH]c5c4)cc3c2N2CCC(N)CC2)c1` [1-23, 6-[4-(4-aminopiperidin-1-yl)-3-(3-chloro-5-methylphenyl)cinnolin-6-yl]-4-fluoro-2,3-dihydro-1H-1,3-benzodiazol-2-one] has an EC50 of under 0.01 µM. Compound `Cc1cc(Cl)cc(-c2nnc3ccc(-c4cc(F)cc5[nH]c(=O)[nH]c45)cc3c2N2CCC(N)CC2)c1` [1-24, 4-[4-(4-aminopiperidin-1-yl)-3-(3-chloro-5-methylphenyl)cinnolin-6-yl]-6-fluoro-2,3-dihydro-1H-1,3-benzodiazol-2-one] has an EC50 of under 0.01 µM. In the case of `Cc1cc(F)cc(-c2nnc3cc(Cl)c(-c4cc(F)cc(C(N)=O)c4)cc3c2N2CCC(NCCF)CC2)c1` [1-25, 3-[7-chloro-3-(3-fluoro-5-methylphenyl)-4-{4-[(2-fluoroethyl)amino]piperidin-1-yl}cinnolin-6-yl]-5-fluorobenzamide], the EC50 is reported as under 0.01 µM. `NC1CCN(c2c(-c3cc(Cl)cc(Cl)c3)nnc3ccc(-c4cc(F)c5[nH]c(=O)[nH]c5c4)cc23)CC1` [1-28, 6-[4-(4-aminopiperidin-1-yl)-3-(3,5-dichlorophenyl)cinnolin-6-yl]-4-fluoro-2,3-dihydro-1H-1,3-benzodiazol-2-one] gave an EC50 of under 0.01 µM. In the case of `Cc1cc(Cl)cc(-c2nnc3ccc(-c4cccc(F)c4O)cc3c2N2CCC(N)CC2)c1` [1-29, 2-[4-(4-aminopiperidin-1-yl)-3-(3-chloro-5-methylphenyl)cinnolin-6-yl]-6-fluorophenol], the EC50 is reported as under 0.01 µM. `NC(=O)c1cc(F)cc(-c2ccc3nnc(-c4cc(Cl)cc(Cl)c4)c(N4CCC(N)CC4)c3c2)c1` [1-30, 3-[4-(4-aminopiperidin-1-yl)-3-(3,5-dichlorophenyl)cinnolin-6-yl]-5-fluorobenzamide] gave an EC50 of under 0.01 µM. `NC(=O)c1cc(F)cc(-c2ccc3nnc(-c4cc(Cl)cc(Cl)c4)c(N4CCC(NC5COC5)CC4)c3c2)c1` [1-31, 3-[3-(3,5-dichlorophenyl)-4-{4-[(oxetan-3-yl)amino]piperidin-1-yl}cinnolin-6-yl]-5-fluorobenzamide] was tested, and the EC50 was under 0.01 µM. Compound `NC(=O)c1cc(F)cc(-c2ccc3nnc(-c4cc(Cl)cc(Cl)c4)c(N4CCC(NCCC(F)(F)F)CC4)c3c2)c1` [1-32, 3-[3-(3,5-dichlorophenyl)-4-{4-[(3,3,3-trifluoropropyl)amino]piperidin-1-yl}cinnolin-6-yl]-5-fluorobenzamide] has an EC50 of under 0.01 µM.
